Measurements published in patent publication US20140256756A1, “PIPERIDINYL-SUBSTITUTED LACTAMS AS GPR119 MODULATORS” (Array BioPharma Inc., priority 2011, published 2014).
Counter-ions that a name gives are not always drawn.

Tested on: modified version of the GPR119 receptor (94% identity to human receptor)
Assay: cAMP production assay (LANCE cAMP kit, TR-FRET) in HEK-293 cells
Type: cell-based
Conditions: for cAMP production in HEK-293 cells: HEK-293 cells stably expressing modified GPR119, test compounds 0.2 nM to 10 μM, one-hour incubation; for Fold over baseline: increase in cAMP relative to basal levels, agonist activity if 1.5-fold or greater
Protocol: The assay utilized HEK-293 cells that stably express a modified version of the GPR119 receptor (94% identity to human receptor), under the control of a CMV promoter containing a tet-on element for tetracycline-inducible expression. GPR119 agonist-induced cyclic AMP (cAMP) production was measured in this cell line using the LANCE cAMP kit (Perkin Elmer, Waltham, Mass.). To generate a working stock of cells for the assay, cells were treated overnight with 1 μg/mL doxycycline at 37° C. in the presence of 5% CO2 to induce receptor expression. Cells were then harvested by enzymatic dissociation with 0.05% trypsin, resuspended in freezing medium (DMEM growth medium with 10% each of fetal bovine serum and DMSO), aliquoted and frozen at −80° C. On the day of the assay, frozen cells were thawed, washed 1× in PBS and resuspended in Hank's buffered salt solution (HBSS) containing 5 mM HEPES, 0.1% BSA and Alexa Fluor 647-conjugated anti-cAMP antibody (diluted 1:100). The cell suspension was then transferred to a Proxiplate Plus white 384-well assay plate (Perkin-Elmer) at 2000 cells/well. Test compounds at final concentrations ranging from 0.2 nM to 10 μM were added to the assay plate, followed by a one-hour incubation at ambient temperature (volume=10 μL/well). DMSO concentration was held constant at 0.5%. After incubation with test compounds, 10 μL, of a detergent buffer containing a biotinylated cAMP/Europium-conjugated streptavidin complex (Europium-labeled cAMP tracer) were added to each well on the assay plate, followed by a 2-hour incubation at ambient temperature. During this incubation cAMP released from lysed cells competes with the Europium-labeled cAMP tracer for binding to the Alexa Fluor 647-conjugated antibody. […] Cellular cAMP levels were then determined by interpolation of raw signal data using a cAMP standard curve. Compounds were determined to have agonist activity if they stimulated a 1.5-fold or greater increase in cAMP relative to basal levels.

| Structure (SMILES) | cAMP production in HEK-293 cells | Fold over baseline |
| --- | --- | --- |
| COC(C)(C)c1nsc(N2CCC(N3CC[C@H](Nc4ccc(S(C)(=O)=O)cc4F)C3=O)CC2)n1 [Example 41, (S)-3-(2-fluoro-4-(methylsulfonyl)phenyl-amino)-1-(1-(3-(2-methoxypropan-2-yl)-1,2,4-thiadiazol-5-yl)piperidin-4-yl)pyrrolidin-2-one] | 8.1 nmol | 2.0 |
| CC(C)c1nsc(N2CCC(N3CCC(Oc4ccc(S(=O)(=O)c5ccccc5)cc4F)C3=O)CC2)n1 (centres unmarked) [Example 62, 3-(2-Fluoro-4-(phenylsulfonyl)phenoxy)-1-(1-(3-isopropyl-1,2,4-thiadiazol-5-yl)piperidin-4-yl)pyrrolidin-2-one] | 17.4 nmol | 2.7 |
| CS(=O)(=O)c1cc(F)c(O[C@H]2CCN(C3CCN(c4nnc(C(F)(F)F)s4)CC3)C2=O)cc1F [Example 96, (S)-3-(2,5-difluoro-4-(methylsulfonyl)phenoxy)-1-(1-(5-(trifluoromethyl)-1,3,4-thiadiazol-2-yl)piperidin-4-yl)pyrrolidin-2-one] | 14.2 nmol | 3.1 |
| CS(=O)(=O)c1ccc(N[C@H]2CCCN(C3CCN(c4nc(C(F)(F)F)ns4)CC3)C2=O)c(F)c1 [Example 87, (S)-3-(2-fluoro-4-(methylsulfonyl)phenylamino)-1′-(3-(trifluoromethyl)-1,2,4-thiadiazol-5-yl)-[1,4′-bipiperidin]-2-one] | 13.6 nmol | 2.1 |
| CS(=O)(=O)c1cc(F)c(O[C@H]2CCN(C3CCN(c4cnc(C(F)(F)F)s4)CC3)C2=O)cc1F [Example 98, (S)-3-(2,5-difluoro-4-(methylsulfonyl)phenoxy)-1-(1-(2-(trifluoromethyl)thiazol-5-yl)piperidin-4-yl)pyrrolidin-2-one] | 23.7 nmol | 5.4 |
| CS(=O)(=O)c1cc(F)c(O[C@H]2CCN(C3CCN(c4nc(C(F)(F)F)ns4)CC3)C2=O)cc1F [Example 91, (S)-3-(2,5-difluoro-4-(methylsulfonyl)phenoxy)-1-(1-(3-(trifluoromethyl)-1,2,4-thiadiazol-5-yl)piperidin-4-yl)pyrrolidin-2-one] | 25.6 nmol | 5.4 |
| CS(=O)(=O)c1ccc(O[C@H]2CCN(C3CCN(c4nc(-c5cnco5)ns4)CC3)C2=O)c(F)c1 [Example 70, (S)-3-(2-fluoro-4-(methylsulfonyl)phenoxy)-1-(1-(3-(oxazol-5-yl)-1,2,4-thiadiazol-5-yl)piperidin-4-yl)pyrrolidin-2-one] | 11.4 nmol | 3.1 |
| CC(C)c1nsc(N2CCC(N3CC[C@H](Nc4ccc(S(=O)(=O)CC5CC5)cc4F)C3=O)CC2)n1 [Example 6, (S)-3-(4-(cyclopropylmethylsulfonyl)-2-fluorophenylamino)-1-(1-(3-isopropyl-1,2,4-thiadiazol-5-yl)piperidin-4-yl)pyrrolidin-2-one] | 23.2 nmol | 3.2 |
| CC(C)c1nsc(N2CCC(N3CC[C@H](Nc4ccc(S(=O)(=O)C(C)C)cc4F)C3=O)CC2)n1 [Example 8, (S)-3-(2-fluoro-4-(isopropylsulfonyl)phenylamino)-1-(1-(3-isopropyl-1,2,4-thiadiazol-5-yl)piperidin-4-yl)pyrrolidin-2-one] | 37.6 nmol | 4.7 |
| CC(C)(C)c1nsc(N2CCC(N3CCC[C@H](Nc4ccc(S(C)(=O)=O)cc4F)C3=O)CC2)n1 [Example 30, (S)-1′-(3-tert-butyl-1,2,4-thiadiazol-5-yl)-3-(2-fluoro-4-(methylsulfonyl)phenylamino)-[1,4′-bipiperidin]-2-one] | 13.9 nmol | 2.8 |
| CS(=O)(=O)c1ccc(O[C@H]2CCN(C3CCN(c4nc(C(F)(F)F)ns4)CC3)C2=O)c(F)c1 [Example 86, (S)-3-(2-Fluoro-4-(methylsulfonyl)phenoxy)-1-(1-(3-(trifluoromethyl)-1,2,4-thiadiazol-5-yl)piperidin-4-yl)pyrrolidin-2-one] | 11.1 nmol | 3.4 |
| CS(=O)(=O)c1ccc(N[C@H]2CCN(C3CCN(c4nc([C@H](O)CO)ns4)CC3)C2=O)c(F)c1 [Example 25, (S)-1-(1-(3-((S)-1,2-dihydroxyethyl)-1,2,4-thiadiazol-5-yl)piperidin-4-yl)-3-(2-fluoro-4-(methylsulfonyl)phenylamino)pyrrolidin-2-one] | 8.3 nmol | 2.1 |
| CC(C)(C)c1nsc(N2CCC(N3CC[C@H](Oc4cc(F)c(S(C)(=O)=O)cc4F)C3=O)CC2)n1 [Example 34, (S)-1-(1-(3-tert-butyl-1,2,4-thiadiazol-5-yl)piperidin-4-yl)-3-(2,5-difluoro-4-(methylsulfonyl)phenoxy)pyrrolidin-2-one] | 29.2 nmol | 4.5 |
| CC(C)c1nsc(N2CCC(N3CC[C@H](Nc4cc(F)c(S(C)(=O)=O)cc4F)C3=O)CC2)n1 [Example 5, (S)-3-(2,5-difluoro-4-(methylsulfonyl)phenylamino)-1-(1-(3-isopropyl-1,2,4-thiadiazol-5-yl)piperidin-4-yl)pyrrolidin-2-one] | 19.2 nmol | 2.7 |
| CC(C)Cc1nsc(N2CCC(N3CCC(Oc4cc(F)c(S(C)(=O)=O)cc4F)C3=O)CC2)n1 (centres unmarked) [Example 49, 3-(2,5-difluoro-4-(methylsulfonyl)phenoxy)-1-(1-(3-isobutyl-1,2,4-thiadiazol-5-yl)piperidin-4-yl)pyrrolidin-2-one trifluoroacetate] | 15.4 nmol | 2.8 |
| CS(=O)(=O)c1ccc(N[C@H]2CCN(C3CCN(c4nc(C5CC5)ns4)CC3)C2=O)c(F)c1 [Example 23, (S)-1-(1-(3-cyclopropyl-1,2,4-thiadiazol-5-yl)piperidin-4-yl)-3-(2-fluoro-4-(methyl-sulfonyl)phenylamino) pyrrolidin-2-one] | 11.9 nmol | 2.9 |
| CC(C)c1nsc(N2CCC(N3CC[C@H](Oc4ccc(S(C)(=O)=O)nc4)C3=O)CC2)n1 [Example 94, (S)-1-(1-(3-isopropyl-1,2,4-thiadiazol-5-yl)piperidin-4-yl)-3-((6-(methylsulfonyl)pyridin-3-yl)oxy)pyrrolidin-2-one] | 28.1 nmol | 4.0 |
| CC(C)c1nsc(N2CCC(N3CC[C@@H](Nc4ccc(S(=O)(=O)C5CC5)cc4F)C3=O)CC2)n1 [Example 7, (R)-3-(4-(cyclopropylsulfonyl)-2-fluorophenylamino)-1-(1-(3-isopropyl-1,2,4-thiadiazol-5-yl)piperidin-4-yl)pyrrolidin-2-one] | 23.8 nmol | 3.4 |
| CC(C)c1nsc(N2CCC(N3CCC(Oc4ccc(-c5nnn(C)n5)cc4)C3=O)CC2)n1 (centres unmarked) [Example 83, 1-(1-(3-isopropyl-1,2,4-thiadiazol-5-yl)piperidin-4-yl)-3-(4-(2-methyl-2H-tetrazol-5-yl)phenoxy)pyrrolidin-2-one] | 14.9 nmol | 2.5 |
